Values of other authors, collected in US20170343557A1, “USE OF 5-METHOXYTRYPTOPHAN AS DIAGNOSTIC AGENT OF INFLAMMATORY DISEASES” (NATIONAL HEALTH RESEARCH INSTITUTES, priority 2014, published 2017).

How the values were obtained:
[1] = tested on: cancer metastasis in a xenograft model
[2] = tested on: cancer cell migration and invasion
[3] = tested on: COX-2 expression in fibroblasts and cancer cells

## COc1ccc2[nH]cc(C[C@H](N)C(=O)O)c2c1 [5-MTP, 5-methoxytryptophan]
[1]
  Cancer metastasis: reduces
[2]
  Cancer cell migration and invasion: reduces
[3]
  Proinflammatory mediator-induced COX-2 expression: inhibits
